The text below walks through data of ChEMBL document CHEMBL1156398, “Four new bioactive pyrrole-derived alkaloids from the marine sponge Axinella brevistyla” (J Nat Prod, 2001).

Experiment [1] deals with Saccharomyces cerevisiae. The experiment in a line: Antifungal activity against Saccharomyces cerevisiae YAT2285 erg6 mutant at 100 ug/disk by paper disk method. In kind it is functional, organism-based.
The test system of a further experiment is L1210. Kind of experiment: Cytotoxicity against mouse L1210 cells. In kind it is functional, cell-based.
Experiment [2] has as its system Saccharomyces cerevisiae. Kind of experiment: Antifungal activity against Saccharomyces cerevisiae YAT2285 erg6 mutant at 30 ug/disk by paper disk method. In kind it is functional, organism-based.
Experiment [3] deals with Saccharomyces cerevisiae. The experiment in a line: Antifungal activity against Saccharomyces cerevisiae YAT2285 erg6 mutant at <1.0 ug/disk by paper disk method. In kind it is functional, organism-based.

Converted amounts (≈) assume the structure as drawn. The source made the active and inactive calls. No cut-off for these calls is given here.

`C[N+]1=CN[C@H](C(=O)[O-])C[C@@]1(C)COC(=O)c1cc(Br)c[nH]1`: the outcome with Saccharomyces cerevisiae [1] was Active.
Broadly, the IC50 is the point on the concentration scale where inhibition reaches its midpoint. High values mean lower potency, low ones higher potency. The compound `NC1=NC2c3c([nH]c(Br)c3Br)C(=O)N3C[C@H](Cl)[C@H](O)C23N1` (some centres not stated) came in with a concentration for half-maximal inhibition (IC50) in the experiment with L1210 of 2.5 µg/mL (≈ 5.69 µM). Further, the result with Saccharomyces cerevisiae [2] was Active.
For the compound `O=C1NC(=O)C(Br)=C1Br`, in the experiment on Saccharomyces cerevisiae [3], the result was Active. In the experiment on L1210, this compound registered an IC50 of 0.66 µg/mL (≈ 2.59 µM).
For `O=C1C=C(Br)C(=O)N1`, in that order: “Active” and 1.1 µg/mL (≈ 6.25 µM).
